Data on 7 compounds can be found in ChEMBL document CHEMBL3045272, “Synthesis and fungicidal activities of novel bis(trifluoromethyl)phenyl-based strobilurins” (J Agric Food Chem, 2008).

Assay [1] relates to Podosphaera fuliginea. The assay is described as follows: Fungicidal activity against Podosphaera fuliginea infected compound pre-treated cucumber plants assessed as disease preventive activity at 6.25 mg/L measured after 1 or 2 weeks. It is filed as functional.
Assay [2] relates to Blumeria graminis. Put plainly: Fungicidal activity against Blumeria graminis infected wheat plants exposed to compound treatment 1 day post infection assessed as disease curative activity at 3.12 mg/L measured after 1 or 2 weeks. It is filed as functional.
The test system of assay [3] is Blumeria graminis. The assay is described as follows: Fungicidal activity against Blumeria graminis infected wheat plants exposed to compound treatment 1 day post infection assessed as disease curative activity measured after 1 or 2 weeks. It is filed as functional, organism-based.
The test system of assay [4] is Blumeria graminis. Put plainly: Fungicidal activity against Blumeria graminis infected compound pre-treated wheat plants assessed as disease preventive activity at 100 ppm measured after 1 or 2 weeks. It is filed as functional.
For assay [5], the system named is Blumeria graminis. The assay is described as follows: Fungicidal activity against Blumeria graminis infected compound pre-treated wheat plants assessed as disease preventive activity at 3.12 mg/L measured after 1 or 2 weeks. It is filed as functional.
Assay [6] relates to Blumeria graminis. Put plainly: Fungicidal activity against Blumeria graminis infected compound pre-treated wheat plants assessed as disease preventive activity at 0.78 mg/L measured after 1 or 2 weeks. It is filed as functional.
In assay [7] the test system is Blumeria graminis. Put plainly: Fungicidal activity against Blumeria graminis infected compound pre-treated wheat plants assessed as disease preventive activity at 3.1 ppm measured after 1 or 2 weeks. It is filed as functional.
Assay [8] deals with Blumeria graminis. Put plainly: Fungicidal activity against Blumeria graminis infected compound pre-treated wheat plants assessed as disease preventive activity at 1.56 mg/L measured after 1 or 2 weeks. It is filed as functional.
Assay [9] has as its system Blumeria graminis. The assay is described as follows: Fungicidal activity against Blumeria graminis infected compound pre-treated wheat plants assessed as disease preventive activity at 1.5 ppm measured after 1 or 2 weeks. It is filed as functional.
The subject of assay [10] is Podosphaera fuliginea. The assay is described as follows: Fungicidal activity against Podosphaera fuliginea infected cucumber plants exposed to compound treatment 1 day post infection assessed as disease curative activity measured after 1 or 2 weeks. It is filed as functional, organism-based.
Assay [11] deals with Podosphaera fuliginea. The assay is described as follows: Fungicidal activity against Podosphaera fuliginea infected compound pre-treated cucumber plants assessed as disease preventive activity at 1.56 mg/L measured after 1 or 2 weeks. It is filed as functional.
Assay [12] deals with Podosphaera fuliginea. The assay is described as follows: Fungicidal activity against Podosphaera fuliginea infected compound pre-treated cucumber plants assessed as disease preventive activity at 0.78 mg/L measured after 1 or 2 weeks. It is filed as functional.
The subject of assay [13] is Blumeria graminis. Put plainly: Fungicidal activity against Blumeria graminis infected wheat plants exposed to compound treatment 1 day post infection assessed as disease curative activity at 1.56 mg/L measured after 1 or 2 weeks. It is filed as functional.
For assay [14], the system named is Blumeria graminis. The assay is described as follows: Fungicidal activity against Blumeria graminis infected wheat plants exposed to compound treatment 1 day post infection assessed as disease curative activity at 0.78 mg/L measured after 1 or 2 weeks. It is filed as functional.
For assay [15], the system named is Blumeria graminis. The assay is described as follows: Fungicidal activity against Blumeria graminis infected compound pre-treated wheat plants assessed as disease preventive activity at 500 ppm measured after 1 or 2 weeks. It is filed as functional.
Assay [16] deals with Blumeria graminis. The assay is described as follows: Fungicidal activity against Blumeria graminis infected compound pre-treated wheat plants assessed as disease preventive activity at 6.2 ppm measured after 1 or 2 weeks. It is filed as functional.
Assay [17] deals with Blumeria graminis. Put plainly: Fungicidal activity against Blumeria graminis infected wheat plants exposed to compound treatment 1 day post infection assessed as disease curative activity at 6.25 mg/L measured after 1 or 2 weeks. It is filed as functional.
Assay [18] has as its system Podosphaera fuliginea. Put plainly: Fungicidal activity against Podosphaera fuliginea infected cucumber plants exposed to compound treatment 1 day post infection assessed as disease curative activity at 1.56 mg/L measured after 1 or 2 weeks. It is filed as functional.
Assay [19] has as its system Podosphaera fuliginea. Put plainly: Fungicidal activity against Podosphaera fuliginea infected cucumber plants exposed to compound treatment 1 day post infection assessed as disease curative activity at 3.12 mg/L measured after 1 or 2 weeks. It is filed as functional.
The test system of assay [20] is Podosphaera fuliginea. The assay is described as follows: Fungicidal activity against Podosphaera fuliginea infected compound pre-treated cucumber plants assessed as disease preventive activity at measured after 1 or 2 weeks. It is filed as functional, organism-based.
In assay [21] the test system is Podosphaera fuliginea. The assay is described as follows: Fungicidal activity against Podosphaera fuliginea infected compound pre-treated cucumber plants assessed as disease preventive activity at 3.12 mg/L measured after 1 or 2 weeks. It is filed as functional.
The test system of assay [22] is Blumeria graminis. The assay is described as follows: Fungicidal activity against Blumeria graminis infected compound pre-treated wheat plants assessed as disease preventive activity at 6.25 mg/L measured after 1 or 2 weeks. It is filed as functional.
For assay [23], the system named is Podosphaera fuliginea. The assay is described as follows: Fungicidal activity against Podosphaera fuliginea infected cucumber plants exposed to compound treatment 1 day post infection assessed as disease curative activity at 6.25 mg/L measured after 1 or 2 weeks. It is filed as functional.
Assay [24] concerns Blumeria graminis. Put plainly: Fungicidal activity against Blumeria graminis infected compound pre-treated wheat plants assessed as disease preventive activity measured after 1 or 2 weeks. It is filed as functional, organism-based.
The test system of assay [25] is Podosphaera fuliginea. Put plainly: Fungicidal activity against Podosphaera fuliginea infected cucumber plants exposed to compound treatment 1 day post infection assessed as disease curative activity at 0.78 mg/L measured after 1 or 2 weeks. It is filed as functional.

In brackets after ≈: the same amount, converted by molar mass.

A word on the EC50: it is the concentration that produces a half-maximal response. The EC90 is the point of the concentration-response curve where the effect stands at 90%. On to `CO/N=C(/C1=NOCCO1)c1ccccc1CO/N=C(\OC)c1cc(C(F)(F)F)cc(C(F)(F)F)c1`, for which the Activity was 100% with Podosphaera fuliginea [1]; 90% with Blumeria graminis [2]; 100% with Blumeria graminis [4]; 98% in the assay with Blumeria graminis [5]; 30% in the assay with Blumeria graminis [6]; 96% with Blumeria graminis [7]. For the same compound, the Activity came out at 75% in the assay with Blumeria graminis [8]; 95% with Blumeria graminis [9]; 75% in the assay with Podosphaera fuliginea [11]; 55% with Podosphaera fuliginea [12]; 70% in the assay with Blumeria graminis [13]; 35% with Blumeria graminis [14]. Further, the Activity with Blumeria graminis [15] turned out to be 100%; with Blumeria graminis [16] it was 100%; with Blumeria graminis [17], 100%; in the assay on Podosphaera fuliginea [18], 80%; with Podosphaera fuliginea [19] it was 100%; in the assay with Podosphaera fuliginea [21], 100%. Also, the figures for the Activity in the assay on Blumeria graminis [22], in the assay on Podosphaera fuliginea [23] and in the assay on Podosphaera fuliginea [25] were 100%, 100% and 60%, respectively. Besides, the concentration giving a half-maximal response (EC50) came to 1 µg/mL (≈ 1.93 µM) in the assay with Blumeria graminis [3], 0.8 µg/mL (≈ 1.54 µM) with Podosphaera fuliginea [10], 0.8 µg/mL (≈ 1.54 µM) in the assay with Podosphaera fuliginea [20] and 0.9 µg/mL (≈ 1.73 µM) in the assay on Blumeria graminis [24]. In addition, the EC90 with Blumeria graminis [3] turned out to be 2.4 µg/mL (≈ 4.62 µM); with Podosphaera fuliginea [10], 1.5 µg/mL (≈ 2.89 µM); in the assay with Podosphaera fuliginea [20], 1.6 µg/mL (≈ 3.08 µM); in the assay with Blumeria graminis [24], 2 µg/mL (≈ 3.85 µM).

Take `CO/C=C(/C(=O)OC)c1ccccc1Oc1cc(Oc2ccccc2C#N)ncn1` [AZOXYSTROBIN]: the Activity was determined as 95% with Podosphaera fuliginea [1]; 78% in the assay with Blumeria graminis [2]; 100% in the assay with Blumeria graminis [4]; 65% in the assay on Blumeria graminis [5]; 20% with Blumeria graminis [6]; 80% in the assay on Blumeria graminis [7]. The Activity in the assay on Blumeria graminis [8] turned out to be 50%; in the assay with Blumeria graminis [9], 62%; with Podosphaera fuliginea [11], 60%; in the assay with Podosphaera fuliginea [12], 35%; in the assay with Blumeria graminis [13], 52%; in the assay on Blumeria graminis [14], 15%. Moreover, the Activity turned out to be 100% in the assay with Blumeria graminis [15]; 85% with Blumeria graminis [16]; 89% in the assay on Blumeria graminis [17]; 80% with Podosphaera fuliginea [18]; 90% with Podosphaera fuliginea [19]; 80% with Podosphaera fuliginea [21]. Besides, the results for the Activity in the assay on Blumeria graminis [22], in the assay on Podosphaera fuliginea [23] and in the assay on Podosphaera fuliginea [25] were 90%, 100% and 55%, respectively. The EC50 with Blumeria graminis [3] came to 1.7 µg/mL (≈ 4.21 µM); in the assay with Podosphaera fuliginea [10] it was 0.8 µg/mL (≈ 1.98 µM); in the assay with Podosphaera fuliginea [20] it was 1.2 µg/mL (≈ 2.97 µM); with Blumeria graminis [24] it was 1.7 µg/mL (≈ 4.21 µM). In addition, the EC90 in the assay with Blumeria graminis [3] was found to be 5.9 µg/mL (≈ 14.6 µM); in the assay with Podosphaera fuliginea [10], 2.1 µg/mL (≈ 5.21 µM); in the assay on Podosphaera fuliginea [20], 4.5 µg/mL (≈ 11.2 µM); in the assay with Blumeria graminis [24], 7 µg/mL (≈ 17.4 µM).

Take `CO/C=C(/C(=O)OC)c1ccccc1CO/N=C(\OC)c1cc(C(F)(F)F)cc(C(F)(F)F)c1`: the Activity with Podosphaera fuliginea [1] was 100%; with Blumeria graminis [2], 82%; in the assay with Blumeria graminis [4] it was 100%; in the assay on Blumeria graminis [5] it was 81%; in the assay with Blumeria graminis [6] it was 20%; in the assay on Blumeria graminis [7], 100%. In addition, the Activity in the assay with Blumeria graminis [8] came to 60%; in the assay with Blumeria graminis [9], 98%; with Podosphaera fuliginea [11] it was 80%; in the assay with Podosphaera fuliginea [12], 59%; with Blumeria graminis [13], 50%; with Blumeria graminis [14] it was 20%. The Activity in the assay with Blumeria graminis [15] was found to be 100%; with Blumeria graminis [16], 100%; with Blumeria graminis [17], 94%; with Podosphaera fuliginea [18], 92%; in the assay on Podosphaera fuliginea [19] it was 100%; with Podosphaera fuliginea [21], 100%. Further, the Activity in the assay with Blumeria graminis [22] stood at 100%; with Podosphaera fuliginea [23], 100%; in the assay with Podosphaera fuliginea [25], 56%. For the same compound, the EC50 with Blumeria graminis [3] was determined as 1.5 µg/mL (≈ 3.05 µM); in the assay with Podosphaera fuliginea [10] it was 0.8 µg/mL (≈ 1.63 µM); in the assay on Podosphaera fuliginea [20], 0.8 µg/mL (≈ 1.63 µM); with Blumeria graminis [24] it was 1.2 µg/mL (≈ 2.44 µM). In addition, the EC90 in the assay with Blumeria graminis [3] is 4.8 µg/mL (≈ 9.77 µM); in the assay on Podosphaera fuliginea [10], 1.4 µg/mL (≈ 2.85 µM); in the assay on Podosphaera fuliginea [20], 1.5 µg/mL (≈ 3.05 µM); in the assay on Blumeria graminis [24], 2.8 µg/mL (≈ 5.7 µM).

For the compound `CN/C(=N\OCc1ccccc1/C(=C\OC)C(=O)OC)c1cc(C(F)(F)F)cc(C(F)(F)F)c1`, the Activity in the assay on Blumeria graminis [4] came out at 100%; in the assay on Blumeria graminis [7] it was 65%; with Blumeria graminis [9], 25%; in the assay on Blumeria graminis [15], 100%; in the assay with Blumeria graminis [16] it was 90%.

In the case of `CN/C(=N\OCc1ccccc1/C(=N\OC)C(=O)OC)c1cc(C(F)(F)F)cc(C(F)(F)F)c1`, the Activity with Blumeria graminis [4] was 100%; in the assay on Blumeria graminis [7] it was 90%; with Blumeria graminis [9], 70%; with Blumeria graminis [15] it was 100%; in the assay on Blumeria graminis [16], 93%.

With `CCO/C(=N\OCc1ccccc1/C(=N\OC)C(=O)OC)c1cc(C(F)(F)F)cc(C(F)(F)F)c1`, the Activity in the assay with Blumeria graminis [4] was 100%; in the assay on Blumeria graminis [7] it was 50%; with Blumeria graminis [9], 15%; in the assay on Blumeria graminis [15] it was 100%; with Blumeria graminis [16] it was 80%.

For the compound `CO/N=C(/C(=O)OC)c1ccccc1CO/N=C(\OC)c1cc(C(F)(F)F)cc(C(F)(F)F)c1`, the Activity in the assay on Blumeria graminis [4] came to 100%; in the assay with Blumeria graminis [7], 98%; in the assay on Blumeria graminis [9] it was 80%; in the assay with Blumeria graminis [15], 100%; in the assay with Blumeria graminis [16], 100%.
